Laboratory results: patent publication US20230174581A1, “PROCESSES AND AGENTS FOR GLAUCOMA” (AUFBAU MEDICAL INNOVATIONS LIMITED, priority 2020, published 2023)
Where a name gives a salt, the structure may show the parent alone. Where a SMILES comes first, the peptide text is derived from it. Bridges are numbered along the chain shown (N, C = ends). [ ]: non-standard residue; d: D form. The star is where a group is joined. Octanoyl(6-Me) = CCC(C)CCCCC(=O)*; Dab = NCC[CH](N)C(=O)O

Tests used:
[1] = Relative IOP versus placebo in bovine vitreous humor (BVH) glaucoma model, microfluidic chip device
Protocol: Bovine vitreous after homogenization was used to model human disease because it mimicked elevated IOP in humans.
A solution of the agent compound was prepared by weighing out the compound in a microcentrifuge tube and dissolving the solid material in lx PBS buffer at pH 7.2. For a compound that was less soluble in water, a stock solution was prepared in ethanol or DMSO, and then diluted ten-fold to achieve the final concentration with a 10% ethanol or DMSO vehicle. Heat (37° C.) and vortex mixing were applied to the solution of the compound to facilitate dissolution.
To determine the effect of the compound on intraocular pressure (IOP), the compound was tested in bovine vitreous humor (BVH) glaucoma model in the microfluidic chip device.
A solution of 25% homogenized bovine vitreous humor (BVH) was prepared by diluting 100% homogenized BVH with PBS buffer. 50 uL BVH was aliquoted into 0.5 mL PCR tubes. 50 uL of the solution of the compound was added to the BVH, bringing the BVH total concentration to 12.5%. The sample was briefly vortexed and then incubated at 37° C. overnight. For a control experiment, 50 uL of either PBS buffer or PBS with 10% ethanol or DMSO were prepared and incubated with 25% BVH in the same conditions.
The test BVH solution was introduced into the reservoir of the device. A fluidic probe was attached to the inlet of the microfluidic chip and a flow rate of 2ul/min was established with PBS as the source fluid. Once fluid began exiting from the outlet of the chip and a steady flow of 2 ul/min was achieved, the flow rate and the pressure change within the microfluidic chip were recorded. Baseline flow rate and pressure readings were recorded for 5 minutes, after which 7 ul of the test BVH solution was injected into the chip through a sample injector. Recording of the flow rate and pressure change was continued for 50 additional minutes after the sample injection. Recording was stopped after 55 minutes. The relative change in chip pressure for the entire course of the experiment was plotted on a graph.

[2] = Dose-response of IOP reduction in bovine vitreous humor (BVH) glaucoma model, microfluidic chip device; details: 12.5% BVH, incubated at 37° C. for 1 hour; 7 ul injected; read-out: EC50 for treatment of glaucoma in a bovine vitreous model (IOP reduction)
Protocol: Bovine vitreous after homogenization was used to model human disease because it mimicked elevated IOP in humans. […] Once it was added to BVH, the final water concentration was 0.5%. […] Once added to BVH, the final DMSO concentration was 0.5%. […] The pellet was resuspended with PBS and concentrated by 2.5X fold. For treatment of BVH with compound, 25 ul of enriched BVH was added to 25 ul of Compound and incubated for 1 hour in a thermocycler at 37° C., then 5 ul of 5 mM CFSE was added, and the sample incubated in a thermocycler at 37° C. for 30 minutes. EC50 was estimated by plotting the logarithmic functions of the micromolar concentration of the drug in the x axis against the percent of maximal response in the y axis. The maximal response was taken as the value of the response for the highest drug concentration. The response was calculated by taking the absolute difference between the control and test value for each concentration. The compound colistin sulfate was tested in bovine vitreous humor (BVH) glaucoma model in a microfluidic chip device. A solution of 25% homogenized BVH in PBS buffer was prepared and diluted with an equal amount of a solution of the compound, so that the total BVH concentration was 12.5%. The sample was vortexed and incubated at 37° C. for 1 hour. […] The test compound-BVH solution was introduced into the reservoir of the microfluidic chip device and flow rate and pressure change were recorded. Various concentrations of the compound were tested for effects on the treatment of bovine vitreous humor. 7 ul of each test solution was injected into the microfluidic chip through a sample injector. Recording of the flow rate and pressure change was continued for 50 additional minutes after the sample injection. The relative change in chip pressure for the entire course of the experiment was obtained. […] The EC50 value was taken as the point on the x-axis at which the logarithmic function of the micromolar concentration of the compound produced half-maximal response. The logarithmic function of the micromolar concentration of the drug was plotted on the x axis against the percent of maximal response on the y axis. Maximal response was obtained by taking the value of the response for the highest drug concentration. The response was calculated by taking the absolute difference between the control and test value for each concentration.

[3] = Relative IOP in microfluidic device, human glaucoma model (POAG aqueous humor); details: pre-incubated at 37° C. for 24 hours, placebo buffered saline
Protocol: The agent was tested by controlling flow and measuring relative IOP using in a device of this invention. The agent was compared against placebo (buffered saline) by preparing each in aqueous humor from a patient with primary open angle glaucoma and pre-incubating at 37° C. for 24 hours. The timepoint of injection into the device is denoted by an arrow and the letter “a.” Referring to FIG. 25, the IOP for placebo (dashed line) increased greatly after injection of the placebo sample. The IOP rose to a maximum pressure of about 40 mm Hg. To the contrary, the IOP after injection of the agent colistin sulfate in human aqueous humor (solid line) was markedly lower than for placebo, up to about 40% lower, and the difference was sustained.
Example 1. Isolation of extracellular matrix bodies in a microfluidic device. […] The microfluidic channel flow rate was held constant at […] per minute, and the baseline system pressure was measured using an external pressure sensor. The human aqueous humor sample was injected at timepoint denoted by an arrow and the letter “a.” The pressure steadily rises to a maximum of about 41 mm Hg at 27 minutes. […] The protein content in the aqueous humor was labeled with a fluorescent marker, carboxyfluorescein succinimidyl ester (CFSE, marked with black arrows in FIG. 2). The circles are pillars in the restriction channel.
Example 2. […]

[4] = pre-incubated at 37° C. for 24 hours, placebo buffered saline, concentration not given

Row | EC50 [2] [nM] | Molecule | IOP after injection of agent, lower than for placebo [1, 4] | also measured
1 |  | CC(C)(C)C(=O)OCOP(=O)(COCCn1cnc2c(N)ncnc21)OCOC(=O)C(C)(C)C [adefovir dipivoxil] | up to 73% | 
2 | 169 | Nc1ncnc2c1ncn2CCOCP(=O)(O)O [adefovir, ((2-(6-amino-9H-purin-9-yl)ethoxy)methyl)phosphonic acid] |  | 
3 | 11300 | CC(C)(C)NC(=O)N[C@H](C(=O)N1C[C@H]2[C@@H]([C@H]1C(=O)NC(CC1CCC1)C(=O)C(N)=O)C2(C)C)C(C)(C)C (some centres unmarked) [boceprevir] | up to 67% | 
4 |  | CCCCCCCCCCCCCCCC[n+]1ccccc1 [cetylpyridinium chloride, 1-hexadecylpyridin-1-ium] |  | IOP after injection of agent, lower than for placebo ([1]; 37° C. 24 hours, cetylpyridinium chloride 43 mg/ml): ≤ 100%
5 | 213 | CC[C@@H](C(N)=O)N1CCCC1=O [levetiracetam] | up to 62% | 
6 |  | NC[C@@H]1OC(O[C@H]2[C@@H](O)[C@H](O[C@@H]3[C@@H](O)[C@H](N)C[C@H](N)[C@H]3OC3O[C@H](CN)[C@@H](O)[C@H](O)[C@H]3N)O[C@@H]2CO)[C@H](N)[C@@H](O)[C@@H]1O (some centres unmarked) [neomycin] |  | IOP after injection of agent, lower than for placebo ([1]; 37° C. 24 hours, neomycin sulfate 35 mg/ml): 72%
7 |  | COC(=O)N[C@H](C(=O)N1CCC[C@H]1C(=O)Nc1ccc([C@@H]2CC[C@@H](c3ccc(NC(=O)[C@@H]4CCCN4C(=O)[C@@H](NC(=O)OC)C(C)C)cc3)N2c2ccc(C(C)(C)C)cc2)cc1)C(C)C [ombitasvir] |  | IOP after injection of compound compared with placebo ([1]; 37° C. 24 hours, concentration not given): significantly higher than for placebo
8 |  | CC(C)N(CCNC(=O)CN1CCCC1=O)C(C)C [pramiracetam, N-[2-[di(propan-2-yl)amino]ethyl]-2-(2-oxopyrrolidin-1-yl)acetamide] | up to 44% | 
9 |  | CCCCCCCCCCCCOS(=O)(=O)[O-].[Na+] [sodium dodecyl sulfate] |  | IOP after injection of compound compared with placebo ([1]; 37° C. 24 hours, sodium dodecyl sulfate 24 mg/ml): significantly higher than for placebo
10 |  | CN(C)CCCN1c2ccccc2Sc2ccc(C(F)(F)F)cc21 [triflupromazine] | up to 40% | 
11 | 18 | H-TPPT-NH2 [rapastinel TFA] | up to 82% | 
12 | 0.36 | colistin sulfate | up to 97% | IOP after injection of agent, lower than for placebo [3]: up to 40%
13 |  | heparin sodium |  | IOP after injection of agent, lower than for placebo ([1]; 37° C. 24 hours, heparin sodium 10 mg/ml): 32%

Row | Molecule | EC50 [2] [nM] | IOP after injection of agent, lower than for placebo [1, 4] | also measured
14 | CCC(C)CCCCC(=O)NC(CCN)C(=O)NC(C(=O)NC(CCN)C(=O)NC1CCNC(=O)C(C(C)O)NC(=O)C(CCN)NC(=O)C(CCN)NC(=O)C(CC(C)C)NC(=O)C(Cc2ccccc2)NC(=O)C(CCN)NC1=O)C(C)O (centres unmarked) [polymyxin B sulfate] ({Octanoyl(6-Me)}-[Dab]T[Dab][Dab][Dab]FL[Dab][Dab]T; lactam 4-C; configuration not given here) | 4.3 |  | IOP after injection of agent, lower than for placebo ([1]; 37° C. 24 hours, Polymyxin B sulfate 10 mg/ml): 78%
